Where two headings read alike, the source gives them in different places. Where no end group is shown, it is not given here.
What was measured:
Assay in all cases: Direct-binding FRET assay
ATF5 = target: T1, ATF5 (Homo sapiens, UniProt Q9Y2D1); settings: Kd
T1 construct: made in house
T1 sequence (Q9Y2D1 208-271 limits assumed): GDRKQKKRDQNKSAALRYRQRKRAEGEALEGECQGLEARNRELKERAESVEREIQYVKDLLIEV
Method: (§1) The direct binding assay was performed manually in 384-well plates and is similar to a previously described assay. Wells were filled with 20 μL of 1 mM TCEP-HCl. A 4 μM stock of acceptor protein was made fresh in 1 mM TCEP-HCl, and 20 μL was titrated in 2-fold dilutions over the wells. […] The direct-binding FRET data were fit as previously described. Briefly, the Kd of the designed peptide homodimer was experimentally determined and used with previously determined target homodimer Kd values to determine the heterodimer Kd. The homodimer Kd values used for the human bZIPs were from; experiments done by […] et al. used the same protein constructs for the human bZIP proteins, the same buffer conditions, and the same assay. The fitting used a system of ordinary differential equations to describe the concentrations of homo and heterodimers formed by the donor (D) and acceptor (A) as a function of the heterodimer Kd. MATLAB was used to simulate the binding experiment for different Kd values, and the value that gave the best agreement between simulation and experiment was assigned. A minimum 15% change in the donor fluorescence upon titrating the acceptor peptide from 0 to 1000 nM was required for a fit to be attempted. If this minimum was not met, the interaction was classified as “NS” for no signal change. […] These interactions were marked “AS” to indicate anomalous signal. We attributed this to interactions between the peptides, the dyes and the walls of the assay plates at low concentrations. These curves could not be fit, given their unusual shapes at low concentrations of acceptor. For such curves, we removed the first five points and re-fit the data. […] One example of this is increasing concentrations of acceptor causing an increase in donor fluorescence.

BATF3 = target: T2, BATF3 (Homo sapiens, UniProt Q9NR55); settings: Kd, mean or single
T2 construct: made in house
T2 sequence (Q9NR55 35-98 limits assumed): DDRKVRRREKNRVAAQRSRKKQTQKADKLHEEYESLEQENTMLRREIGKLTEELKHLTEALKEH
Method: as §1

CREB3L1 = target: T3, CREB3L1 (Homo sapiens, UniProt Q96BA8)
T3 construct: made in house
T3 sequence (Q96BA8 290-353 limits assumed): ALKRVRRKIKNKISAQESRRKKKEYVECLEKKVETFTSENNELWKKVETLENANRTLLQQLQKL
Method: as §1

CREB3L3 = target: T4, CREB3L3 (Homo sapiens, UniProt Q68CJ9)
T4 construct: made in house
T4 sequence (Q68CJ9 243-306 limits assumed): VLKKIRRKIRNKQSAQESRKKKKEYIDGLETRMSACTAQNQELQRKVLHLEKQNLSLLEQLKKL
Method: as §1

CREBZF = target: T5, CREBZF (Homo sapiens, UniProt Q9NS37)
T5 construct: made in house
T5 sequence (Q9NS37 204-267 limits assumed): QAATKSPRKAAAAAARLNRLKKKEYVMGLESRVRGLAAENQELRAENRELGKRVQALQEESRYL
Method: as §1

DBP = target: T6, DBP (Homo sapiens, UniProt Q10586); settings: Kd
T6 construct: made in house
T6 sequence (Q10586 255-318 limits assumed): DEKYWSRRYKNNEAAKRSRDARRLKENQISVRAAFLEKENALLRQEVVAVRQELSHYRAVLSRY
Method: as §1

FOSL1 = target: T7, FOSL1 (Homo sapiens, UniProt P15407)
T7 construct: made in house
T7 sequence (P15407 105-168 limits assumed): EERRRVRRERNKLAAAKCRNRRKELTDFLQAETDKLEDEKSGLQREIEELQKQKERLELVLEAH
Method: as §1

HLF = target: T8, HLF (Homo sapiens, UniProt Q16534)
T8 construct: made in house
T8 sequence (Q16534 225-288 limits assumed): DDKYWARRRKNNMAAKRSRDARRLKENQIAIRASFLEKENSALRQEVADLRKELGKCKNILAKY
Method: as §1

JUNB = target: T9, JUNB (Homo sapiens, UniProt P17275); settings: Kd, mean or single
T9 construct: made in house
T9 sequence (P17275 268-331 limits assumed): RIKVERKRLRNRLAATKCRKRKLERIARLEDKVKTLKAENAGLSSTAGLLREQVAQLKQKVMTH
Method: as §1

NFIL3 = target: T10, NFIL3 (Homo sapiens, UniProt Q16649)
T10 construct: made in house
T10 sequence (Q16649 73-136 limits assumed): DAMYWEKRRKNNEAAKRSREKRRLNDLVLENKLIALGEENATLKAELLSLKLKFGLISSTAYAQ
Method: as §1

[1] = 4°C, C-terminal fluorescein design as donor, TAMRA target titrated
[2] = 4°C, C-terminal rhodamine design, mean or single
[3] = 4°C, N-terminal rhodamine design, mean or single
[4] = 23°C, C-terminal fluorescein design as donor, TAMRA target titrated
[5] = 23°C, C-terminal rhodamine design, mean or single
[6] = 23°C, N-terminal rhodamine design, mean or single
[7] = 37°C, C-terminal fluorescein design as donor, TAMRA target titrated
[8] = 37°C, C-terminal rhodamine design, mean or single
[9] = 37°C, N-terminal rhodamine design, mean or single
[10] = 4°C, C-terminal rhodamine design
[11] = 4°C, N-terminal rhodamine design
[12] = 23°C, C-terminal rhodamine design
[13] = 23°C, N-terminal rhodamine design
[14] = 37°C, C-terminal rhodamine design
[15] = 37°C, N-terminal rhodamine design

Sequence: SIAATLEKEEANLEKMNKKLAAEIESLLKEKDKLESVLNYHE [JUN-d1]
- Kd (ATF5; [1]): > 1000 nM
- Kd (ATF5; [2]): > 5000 nM
- Kd (ATF5; [3]): > 1000 nM
- Kd (ATF5; [4]): > 1000 nM
- Kd (ATF5; [5]): > 1000 nM
- Kd (ATF5; [6]): > 1000 nM
- Kd (ATF5; [7]): > 1000 nM
- Kd (ATF5; [8]): > 1000 nM
- Kd (ATF5; [9]): > 1000 nM
- Kd (BATF3; [10]): 362 nM
- Kd (BATF3; [11]): > 1000 nM
- Kd (BATF3; [12]): > 5000 nM
- Kd (BATF3; [13]): > 1000 nM
- Kd (BATF3; [14]): > 1000 nM
- Kd (BATF3; [15]): > 1000 nM
- Kd (CREB3L1): > 1000 nM
- Kd (CREB3L1; [2]): > 1000 nM
- Kd (CREB3L1; [3]): > 1000 nM
- Kd (CREB3L1; [5]): > 1000 nM
- Kd (CREB3L1; [6]): > 1000 nM
- Kd (CREB3L1; [9]): > 1000 nM
- Kd (CREB3L3): > 1000 nM
- Kd (CREB3L3; [1]): > 1000 nM
- Kd (CREB3L3; [2]): > 1000 nM
- Kd (CREB3L3; [3]): > 1000 nM
- Kd (CREB3L3; [4]): > 1000 nM
- Kd (CREB3L3; [5]): > 1000 nM
- Kd (CREB3L3; [6]): > 1000 nM
- Kd (CREB3L3; [7]): > 1000 nM
- Kd (CREB3L3; [9]): > 1000 nM
- Kd (CREBZF): > 1000 nM
- Kd (CREBZF; [1]): > 1000 nM
- Kd (CREBZF; [2]): > 1000 nM
- Kd (CREBZF; [3]): > 1000 nM
- Kd (CREBZF; [4]): > 1000 nM
- Kd (CREBZF; [5]): > 1000 nM
- Kd (CREBZF; [6]): > 1000 nM
- Kd (CREBZF; [7]): > 1000 nM
- Kd (CREBZF; [9]): > 1000 nM
- Kd (DBP; [1]): > 1000 nM
- Kd (DBP; [2]): > 5000 nM
- Kd (DBP; [3]): > 1000 nM
- Kd (DBP; [4]): > 1000 nM
- Kd (DBP; [5]): > 5000 nM
- Kd (DBP; [6]): > 1000 nM
- Kd (DBP; [7]): > 1000 nM
- Kd (DBP; [8]): > 1000 nM
- Kd (DBP; [9]): > 1000 nM
- Kd (FOSL1): > 1000 nM
- Kd (FOSL1; [2]): > 1000 nM
- Kd (FOSL1; [3]): > 1000 nM
- Kd (FOSL1; [5]): > 1000 nM
- Kd (FOSL1; [6]): > 1000 nM
- Kd (FOSL1; [9]): > 1000 nM
- Kd (HLF): > 1000 nM
- Kd (HLF; [1]): > 1000 nM
- Kd (HLF; [2]): > 1000 nM
- Kd (HLF; [3]): > 1000 nM
- Kd (HLF; [4]): > 1000 nM
- Kd (HLF; [5]): > 1000 nM
- Kd (HLF; [6]): > 1000 nM
- Kd (HLF; [7]): > 1000 nM
- Kd (HLF; [9]): > 1000 nM
- Kd (JUNB; [10]): 1 nM
- Kd (JUNB; [11]): 2.7 nM
- Kd (JUNB; [12]): 8.4 nM
- Kd (JUNB; [13]): 53 nM
- Kd (JUNB; [14]): 51 nM
- Kd (JUNB; [15]): 850 nM
- Kd (NFIL3): > 1000 nM
- Kd (NFIL3; [1]): > 1000 nM
- Kd (NFIL3; [2]): > 1000 nM
- Kd (NFIL3; [3]): > 1000 nM
- Kd (NFIL3; [4]): > 1000 nM
- Kd (NFIL3; [5]): > 1000 nM
- Kd (NFIL3; [6]): > 1000 nM
- Kd (NFIL3; [7]): > 1000 nM
- Kd (NFIL3; [9]): > 1000 nM
